Data published in patent US5458814A, “Substituted naphthopyrans” (Transitions Optical, Inc., priority 1993, dated 1995).

Experiment: Photochromic response on optical bench (lambda max, sensitivity, saturation optical density, bleach rate) of naphthopyrans imbibed into test square polymerizates
Format: physicochemical
Conditions: for BLEACH RATE T1/2: time for absorbance to reach one half the highest absorbance after removal of activating light, 75° F., 23.9° C.; for Δ OD @ SATURATION: UV exposure continued for 20 minutes; for Δ OD @ SATURATION / Δ OD/Min SENSITIVITY: diethylene glycol bis(allyl carbonate), 75° F. (23.9° C.); for Δ OD/Min SENSITIVITY: first five (5) seconds of UV exposure, expressed on a per minute basis; for LAMBDA MAX of the activated (colored) form in the visible spectrum: imbibed into diethylene glycol bis(allyl carbonate) composition
Experimental: Testing was done with selected photochromic naphthopyrans incorporated into test square polymerizates by one of two different imbibition processes. The test square polymerizates were prepared from a diethylene glycol bis(allyl carbonate) composition and measured 1/8 inch (0.3 centimeters)×2 inches (5.1 centimeters)×2 inches (5.1 centimeters). In one of the imbibition processes, the photochromic naphthopyran was dissolved to form a 10 weight percent solution in a 1:9 mixture of ethyl cellulose:toluene. The solution was then spin coated onto the test squares and allowed to dry. […] After cooling, the ethyl cellulose/toluene resin film was removed from the test squares by washing with acetone.
Alternatively, the test squares were imbibed by the following procedure. Each naphthopyran was dissolved into toluene to form a four (4) weight percent solution of the compound. A piece of No. 4 Whatman filter paper was saturated with the naphthopyran toluene solution and allowed to air dry. The dried filter paper was placed on one side of the test square. A piece of untreated filter paper was placed on the other side of the polymeric test square and the resulting sandwich was placed between two flat aluminum metal plates. […] After cooling, the test squares were washed with acetone.
The photochromic squares were tested for photochromic response rates on an optical bench. […] The bench was fitted with a 150 watt Xenon arc lamp, a remote controlled shutter, a copper sulfate bath acting as a heat sink for the arc lamp, a Schott WG-320 nm cut-off filter which removes short wavelength radiation; neutral density filter(s) and a sample holder in which the square to be tested was inserted. A collimated beam of light from a tungsten lamp was passed through the square at a small angle normal to the square. After passing through the square, the light from the tungsten lamp was directed through a photopic filter attached to a detector. The photopic filter passes wavelengths such that the detector mimics the response of the human eye. The output signals from the detector(s) were processed by a radiometer.
Change in optical density (ΔOD) was determined by inserting an imbibed square in the bleached state into the sample holder, adjusting the transmittance scale to 100%, opening the shutter from the Xenon lamp to provide ultraviolet radiation to change the imbibed square from the bleached state to an activated (i.e., darkened) state, measuring the transmittance in the activated state, and calculating the change in optical density according to the formula ΔOD=log(100% Ta) where % Ta is the percent transmittance in the activated state and the logarithm is to the base 10.
The ΔOD/Min, which represents the sensitivity of the photochromic compound's response to UV light, was measured over the first five (5) seconds of UV exposure, then expressed on a per minute basis. The saturation optical density (OD) was taken under identical conditions as the ΔOD/Min, except UV exposure was continued for 20 minutes for the examples in Table 1. The lambda max reported in Table 1 is the wavelength in the visible spectrum at which the maximum absorption of the activated (colored) form of the photochromic compound in a diethylene glycol bis(allyl carbonate) composition occurs.

SMILES | BLEACH RATE T1/2 (Table 1) [min] | Δ OD @ SATURATION | Δ OD/Min SENSITIVITY | LAMBDA MAX of the activated (colored) form in the visible spectrum [nm] | BLEACH RATE T1/2 (Table 2 comparison) [min]
COC(=O)Oc1c(C(=O)OC)c2c(c3ccccc13)OC(c1ccc(C)cc1)(c1ccc(C)cc1)C=C2 [Example 6, 2,2-bis(4-methylphenyl)-5-methoxycarbonyl-6-(methoxycarbonyloxy)-[2H]-naphtho[1,2-b]pyran] | 1.67 | 0.17 | 0.32 Δ OD/Min | 482 | 
COC(=O)c1c2c(c3ccccc3c1O)OC(c1ccc(OC)cc1)(c1ccc(OC)cc1)C=C2 [Example 1, 2,2-bis(4-methoxyphenyl)-5-methoxycarbonyl-6-hydroxy-[2H]-naphtho[1,2-b]pyran] | 3.92 | 0.18 | 0.47 Δ OD/Min | 497 | 
C1=CC(c2ccccc2)(c2ccccc2)Oc2c1ccc1ccccc21 [Comparative Example 1, 2,2-diphenyl-[2H]-naphtho[1,2-b]pyran, reference compound] |  |  |  |  | > 30
COC(=O)c1c2c(c3ccccc3c1OC(C)=O)OC(c1ccc(OC)cc1)(C(C)(C)C)C=C2 (centres unmarked) [Example 4, 2-(4-methoxyphenyl)-2-t-butyl-5-methoxycarbonyl-6-acetoxy-[2H]naphtho[1,2-b]pyran] |  |  |  |  | 7.22
COC(=O)c1c2c(c3ccccc3c1OC(C)=O)OC(c1ccccc1)(c1ccccc1)C=C2 [Example 7, 2,2-diphenyl-5-methoxycarbonyl-6-acetoxy-[2H]-naphtho[1,2-b]pyran] |  |  |  |  | 3.67
C1=CC2(Oc3c1ccc1ccccc31)C1CC3CC(C1)CC2C3 (centres unmarked) [Comparative Example 3, 2,2-spiroadamantylene-[2H]-naphtho[1,2-b]pyran, reference compound] |  |  |  |  | 3.75
COC(=O)c1c2c(c3ccccc3c1OCC#N)OC(c1ccccc1)(c1ccc(OC)cc1)C=C2 (centres unmarked) [Example 5, 2-(4-methoxyphenyl)-2-phenyl-5-methoxycarbonyl-6-(cyanomethoxy)-[2H]-naphtho [1,2-b]pyran] |  |  |  | 494 | 
CCOC(=O)COc1c(C(=O)OC)c2c(c3ccccc13)OC(c1ccc(OC)cc1)(c1ccc(OC)cc1)C=C2 [Example 3, 2,2-bis(4-methoxyphenyl)-5-methoxycarbonyl-6-ethoxycarbonylmethoxy-[2H]-naphtho[1,2-b]pyran] | 3.52 | 0.44 | 0.79 Δ OD/Min | 508 | 
COC(=O)c1c2c(c3ccccc3c1OC)OC(c1ccc(OC)cc1)(c1ccc(OC)cc1)C=C2 [Example 2, 2,2-bis(4-methoxyphenyl)-5-methoxycarbonyl-6-methoxy-[2H]-naphtho[1,2-b]pyran] | 5.08 | 0.48 | 0.81 Δ OD/Min | 510 | 
COC(=O)c1c2c(c3ccccc3c1OC(C)=O)OC(c1cccc(C(F)(F)F)c1)(c1cccc(C(F)(F)F)c1)C=C2 [Example 11, 2,2-bis(3-trifluoromethylphenyl)-5-methoxycarbonyl-6-acetoxy-[2H]-naphtho[1,2-b]pyran] | 3.63 | 0.08 | 0.15 Δ OD/Min | 455 | 
CCOC(=O)COc1c(C(=O)OC)c2c(c3ccccc13)OC(c1ccc(OC)cc1)(c1ccc3c(c1)CC(C)O3)C=C2 (centres unmarked) [Example 12, 2-(4-methoxyphenyl)-2-(2-methyl-2,3-dihydrobenzofur-5-yl)-5-methoxycarbonyl-6-ethoxycarbonylmethoxy-[2H]-naphtho[1,2-b]pyran] | 4.6 | 0.53 | 0.83 Δ OD/Min | 517 | 
COc1ccc(C2(C(C)(C)C)C=Cc3ccc4ccccc4c3O2)cc1 (centres unmarked) [Comparative Example 4, 2-(4-methoxyphenyl)-2-t-butyl-[2H]naphtho[1,2-b]pyran, reference compound] |  |  |  |  | > 30
COC(=O)c1c2c(c3ccccc3c1C)OC(c1ccc(OC)cc1)(c1ccc(OC)cc1)C=C2 [Example 8, 2,2-bis(4-methoxyphenyl)-5-methoxycarbonyl-6-methyl-[2H]-naphtho[1,2-b]pyran] | 3.62 | 0.42 | 0.63 Δ OD/Min | 476 | 
Cc1cc2ccccc2c2c1C=CC(c1ccccc1)(c1ccccc1)O2 [Comparative Example 2, 2,2-diphenyl-5-methyl-[2H]-naphtho[1,2-b]pyran, reference compound] |  |  |  |  | 10.7
COC(=O)c1c2c(c3ccccc3c1OC)OC1(C=C2)C2CC3CC(C2)CC1C3 (centres unmarked) [Example 13, 2,2'-spiroadamantylene-5-methoxycarbonyl-6-methoxy-[2H]-naphtho[1,2-b]pyran] |  |  |  |  | 1.63
CCC(=O)Oc1c(C(=O)OC)c2c(c3ccccc13)OC(c1ccccc1)(c1ccccc1)C=C2 [Example 10, 2,2-diphenyl-5-methoxycarbonyl-6-(propionyloxy)-[2H]-naphtho[1,2-b]pyran] | 4.28 | 0.19 | 0.39 Δ OD/Min | 470 | 
COC(=O)c1c2c(c3cc(OC)ccc3c1C)OC(c1ccc(OC)cc1)(c1ccc(OC)cc1)C=C2 [Example 9, 2,2-bis(4-methoxyphenyl)-5-methoxycarbonyl-6-methyl-9-methoxy-[2H]-naphtho[1,2-b]pyran] | 6.27 | 0.58 | 0.58 Δ OD/Min | 522 | 
